Several values for one entry are separate records, joined by “and”; a condition that tells them apart may be missing. Equal values may be shown once. Blank lines part the entries; values can stand above or below the compound they belong to.
Legend:
IL-1α = experiment: Epiderm culture assay with quantification of IL-1α (test sample mixed with IIBM); assay type: cell-based, human; conditions: 16 hours
Description: (§1) Epiderm Culture Assay With Quantification of IL-1α and Viability
(§2) In order to evaluate the efficacy of the materials and embodiments of the present invention, a bio-engineered human skin construct is used to model the response of normal human epidermis. The EPIDERM™ skin model (as available from MatTek Corporation, Ashland, Mass.) is a three-dimensional, cornified, air-interfaced culture system. Each EPIDERM™ culture has multiple layers of progressively differentiated keratinocytes, closely resembling human epidermis. EPIDERM™ EPI-200-hydrocortisone-free (hereinafter EPI-200-HCF) cultures are used because these cultures show a strong inflammatory response to irritants. Cultures are incubated in medium that is also hydrocortisone-free (EPI-100-MM-HCF). All work with the cultures is carried out under sterile conditions in a biological safety cabinet.
(§3) Experiments using the EPI-200-HCF cultures are conducted in six-well plates supplied with the cultures. Each well of the plate is filled with 900 microliters of pre-warmed EPI-100-MM-HCF medium, and then one EPI-200-HCF culture insert (shipped in 24-well format) is carefully transferred into the center of each well such that no air bubbles are trapped underneath the insert. After all of the culture inserts are transferred, the six-well plates are incubated in a 37° C., 5% CO2 tissue culture incubator for at least two hours.
(§4) During the time the cultures are acclimating, the controls and test samples to be applied to the cultures are prepared. Sufficient material is prepared such that quadruplicate cultures can be dosed with about 100 microliters of the control or test sample. Throughout this section, the word “water” refers to autoclaved, Milli-Q water.
(§5) For each experiment, three controls are run. The first control is water. The second control is a freshly-made solution of 0.125% Triton-X-100 in water, prepared by diluting the 1% Triton-X-100 stock solution shipped with the EPIDERM™ cultures. The third control is infant irritating bowel movement (hereinafter IIBM). IIBM is prepared as described in the PREPARATION OF INFANT […] method of the TEST METHODS section. At the time of use, the required number of tubes of IIBM are thawed at room temperature and 250 microliter aliquots are dispensed into 1.5 ml polypropylene microfuge tubes using a positive displacement pipettor. To each microfuge tube is then added 10 microliters of a 1 N NaOH solution to raise the pH and ensure activity of the fecal enzymes. For the IIBM control, an additional 250 microliters of water is added, and the tube is mixed thoroughly using a vortex mixer.
(§6) For preparation of the test samples, a suspension in water of the material to be tested is first prepared. As an example, a 1% suspension of zinc oxide in water is prepared by weighing out 0.1 grams of zinc oxide into a 15 ml polypropylene tube (such as Cat No. 21008-935 from VWR) and adding sufficient water to bring the volume to 10 milliliters. Each suspension is vortexed thoroughly and allowed to sit for at least one hour at room temperature prior to use. To ascertain the irritancy of the test sample by itself, the neat suspension is applied to the EPIDERM™ culture. To ascertain the ability of the test sample to reduce the irritancy of IIBM, 250 microliters of the suspension is added to a microfuge tube already containing a 250 microliter aliquot of IIBM plus 10 microliters of 1 N NaOH (as prepared above). […]

EPIDERM™ cultures = experiment: Epiderm culture viability, MTT assay; assay type: cell-based, human; conditions: mixed with IIBM, 16 hours, normalized to water control
Description: as §1, §2, §3, §4, §5, §6

[1] = Lability method (Zincon metallochromic dye colour change); assay type: physicochemical; conditions: 30 mg/10 ml water, pH 7-9, Zincon dye
Description: Particulate zinc materials differ with respect to how strongly the zinc ion (Zn^2+) is held by the counterion or counterions. […] To determine which particulate zinc materials provide labile Zn^2+, a test is developed using a metallochromic dye that changes color upon coordinating Zn 2+. The response is a binary visual assessment of whether or not the color changes, indicating zinc-binding.
The method is based on the commercial metallochromic dye Zincon sodium salt (2-carboxy-2′-hydroxy-5′-sulfoformazyl-benzene sodium salt, such as Cat. No. 201332 available from Sigma-Aldrich, St. Louis, Mo.). Zincon changes from an orange to blue color upon binding zinc ion and provides the basis for detecting available Zn 2+. The specific procedure involves making a stock solution of Zincon in ethanol (50 mg/10 ml ethanol). The particulate zinc material is then added to water (30 mg/10 ml water) and agitated vigorously (pH should be 7-9). Three to four drops of Zincon solution are then added to the particulate zinc material in water, agitated, and a visual assessment of color change made.

Compound: [O]=[Zn] [Zinc Oxide, zinc oxide]
Mean % IL-1α Reduction (IL-1α; zinc oxide 31 mM (0.25% w/w)): 68%
Mean % IL-1α Reduction (IL-1α; zinc oxide 63 mM (0.5% w/w)): 76%
Mean % IL-1α Reduction (IL-1α; zinc oxide 125 mM (1.0% w/w)): 90%
Normalized EPIDERM Viability (EPIDERM™ cultures; zinc oxide 31 mM (0.25% w/w)): 95%
Normalized EPIDERM Viability (EPIDERM™ cultures; zinc oxide 63 mM (0.5% w/w)): 95%
Normalized EPIDERM Viability (EPIDERM™ cultures; zinc oxide 125 mM (1.0% w/w)): 96%
available (labile) Zn2+, binary visual assessment of colour change [1]: having available Zn^2+

Compound: O=S(=O)([O-])[O-].[Zn+2] [Zinc Sulfate, zinc sulfate]
Mean % IL-1α Reduction (IL-1α; zinc sulfate 87 mM (2.5% w/w)): 99% and 98%
Mean % IL-1α Reduction (IL-1α; zinc sulfate 174 mM (5.0% w/w)): 98% and 99%
Normalized EPIDERM Viability (EPIDERM™ cultures; zinc sulfate 87 mM (2.5% w/w)): 44% and 28%
Normalized EPIDERM Viability (EPIDERM™ cultures; zinc sulfate 174 mM (5.0% w/w)): 14% and 11%

Compound: O=C([O-])[O-].[Zn+2] [zinc carbonate]
available (labile) Zn2+, binary visual assessment of colour change [1]: having available Zn^2+

available (labile) Zn2+, binary visual assessment of colour change [1]: having available Zn^2+
Compound: OCC(O)CO.[Zn] [zinc monoglycerolate]

Compound: zinc stearate
available (labile) Zn2+, binary visual assessment of colour change [1]: having available Zn^2+
